Measured values: article PMC10477886, “Adamantaniline Derivatives Target ATP5B to Inhibit Translation of Hypoxia Inducible Factor‐1α” (Advanced Science, 2023)

Columns and labels:
[1] = plasma concentration and pharmacokinetics after intraperitoneal administration in ICR mice; assay type: in vivo; conditions: intraperitoneal 50 mg kg^−1, two mice per compound, five times
Protocol: First, we roughly screened the concentrations in the plasma of seven selected compounds (1‐3n, 1‐3au, 1‐4a, 1‐4k, 1‐4l, 1‐4m, and 1‐4p) at indicated times after intraperitoneal administration in the Institute of Cancer Research (ICR) mice at a dose of 50 mg kg^−1 with two mice per compound, the blood at five different times was collected and the plasma concentration was analyzed finally. […] Besides, we examined the toxicity of HI‐104 in ICR mice by administering for 1 week at a dose of 100 mg kg^−1 by intraperitoneal injection.

[2] = system: HIF‐1α transcriptional activity; experiment: dual‐luciferase assay (HRE‐Firefly Luciferase / renilla) of HIF‐1α transcriptional activity in HEK293T cells; assay type: cell-based, human; conditions: mean ± s.d. (n = 3); for inhibition at 10 µM: read-out: Inhibition rate [%] @ 10 µM; for IC50: HEK293T dual‐luciferase
Source text: To screen HIF‐1α inhibitors in a robust cell‐based assay, we optimized the dual‐luciferase assay with pLenti‐HIF‐1αP2A (P402A and P564A) instead of pLenti‐HIF‐1α in order to ensure the expression of HIF‐1α under normoxia condition. In the cell‐based assay, HEK293T cells were co‐transfected with pLenti‐HIF‐1αP2A, renilla, and hypoxia‐responsive element (HRE)‐Firefly Luciferase (Figure S1, Supporting Information). […] Three compounds were selected as the positive controls including two inhibitors (PX‐478 2HCl and BAY 87‐2243) and an activator (BAY 85‐3934) in the screening assay.
HEK293T cells were stably transfected with reporter plasmids pGMLV‐HRE‐LUC‐puromycin, pMSCV‐renilla‐hygromycin, and pLenti‐HIF‐1αP2A‐neomycin. Stable cell line constructed above, 293‐HIF‐1αP2A‐HRE‐Fluc‐Rluc, were seeded in 384‐well plates and cultured in DMEM with 10% FBS. The following day, the cells were pretreated with indicated chemical compounds from the National Compound Library of the Shanghai Institute of Materia Medica, Chinese Academy of Sciences by Mosquito HTS. The plate was then placed in an incubator chamber and incubated at 37 °C for 24 h. The ratio of firefly/renilla luciferase activity was determined by using the Envision (PerkinElmer).
Stable cell line 293‐HRE‐Fluc‐Rluc expressed luciferase and renilla or HEK293T cells transfected with indicated plasmids (pGL3‐HRE‐luciferase and pSV40‐renilla) were seeded in a 96‐well plate. The cells were co‐incubated with indicated compounds for 24 h and luciferase activities were detected in Microplate Reader (BioTek SYNEGRY H1) using the Dual Luciferase Reporter Assay System Kit (Promega, USA E1910) according to the manufacturer's instruction. The relative Luc activity was normalized by renilla activity. Three independent experiments were performed, and the calculated means and SDs are presented.

[3] = Homo sapiens, HEK-293T, 10 µM, incubation 24 h, HEK293T

IC50 ([2]; Homo sapiens, HEK-293T) [nM]	SMILES	inhibition at 10 µM [2, 3] [%]	further results
26 ± 5	O=C(Nc1ccc(C23CC4CC(CC(C4)C2)C3)cc1)c1cccc(O)c1 [1‐3n, N‐(4‐((3r,5r,7r)‐Adamantan‐1‐yl)Phenyl)−3‐Hydroxybenzamide]	99.7 ± 0.1	concentration in the plasma (rough screen) [1]: barely detectable in the plasma
1900 ± 200	CC(=O)Nc1cccc(C(=O)Nc2ccc(C34CC5CC(CC(C5)C3)C4)cc2)c1 [1‐3w, 3‐Acetamido‐N‐(4‐((3r,5r,7r)‐Adamantan‐1‐yl)Phenyl)Benzamide]	77.4 ± 2.3	–
950 ± 110	CC(=O)Nc1ccc(C(=O)Nc2ccc(C34CC5CC(CC(C5)C3)C4)cc2)cc1 [1‐3x, 4‐Acetamido‐N‐(4‐((3r,5r,7r)‐Adamantan‐1‐yl)Phenyl)Benzamide]	84.4 ± 1.9	–
–	O=C(CCCC[C@@H]1SC[C@@H]2NC(=O)N[C@@H]21)Nc1ccc(C(=O)Nc2ccc(C34CC5CC(CC(C5)C3)C4)cc2)cc1 [1‐3y, N‐(4‐((3r,5r,7r)‐Adamantan‐1‐yl)Phenyl)−4‐(5‐((3aS,4S,6aR)−2‐Oxohexahydro‐1H‐Thieno[3,4‐d]Imidazol‐4‐yl)Pentanamido)Benzamide]	–	Inhibition rate [%] @ 10 µM ([2]; 10 µM, incubation 24 h, HEK293T): 90.4 ± 0.8%; IC50 [2]: 280 ± 100 nM
65 ± 22	O=C(Nc1ccc(C23CC4CC(CC(C4)C2)C3)cc1)c1ccccn1 [1‐4a, N‐(4‐((3r,5r,7r)‐Adamantan‐1‐yl)Phenyl)Picolinamide]	99.7 ± 0.2	concentration in the plasma (rough screen) [1]: barely detectable in the plasma
–	O=C(Nc1ccc(C23CC4CC(CC(C4)C2)C3)cc1)c1cccnc1 [1‐4b, N‐(4‐((3r,5r,7r)‐Adamantan‐1‐yl)Phenyl)Nicotinamide]	75.2 ± 1.9	–
–	O=C(Nc1ccc(C23CC4CC(CC(C4)C2)C3)cc1)c1ccncc1 [1‐4c, N‐(4‐((3r,5r,7r)‐Adamantan‐1‐yl)Phenyl)Isonicotinamide]	41.6 ± 2	–
280 ± 60	O=C(Nc1ccc(C23CC4CC(CC(C4)C2)C3)cc1)c1ccncn1 [1‐4d, N‐(4‐((3r,5r,7r)‐Adamantan‐1‐yl)Phenyl)Pyrimidine‐4‐Carboxamide]	97.1 ± 0.4	–
–	Cc1cnc(C(=O)Nc2ccc(C34CC5CC(CC(C5)C3)C4)cc2)cn1 [1‐4e]	36.3 ± 4.2	–
–	COc1ccc(C(=O)Nc2ccc(C34CC5CC(CC(C5)C3)C4)cc2)nc1 [1‐4f]	36.1 ± 5.6	–
–	COc1ccnc(C(=O)Nc2ccc(C34CC5CC(CC(C5)C3)C4)cc2)c1 [1‐4g, N‐(4‐((3r,5r,7r)‐Adamantan‐1‐yl)Phenyl)−4‐Methoxypicolinamide]	68.5 ± 0.4	–
720 ± 20	O=C(Nc1ccc(C23CC4CC(CC(C4)C2)C3)cc1)c1cc(Cl)ccn1 [1‐4h, N‐(4‐((3r,5r,7r)‐Adamantan‐1‐yl)Phenyl)−4‐Chloropicolinamide]	91.5 ± 1.3	–
520 ± 20	O=C(Nc1ccc(C23CC4CC(CC(C4)C2)C3)cc1)c1cncs1 [1‐4i, N‐(4‐((3r,5r,7r)‐Adamantan‐1‐yl)Phenyl)thiazole‐5‐Carboxamide]	97.1 ± 0.4	–
390 ± 10	O=C(Nc1ccc(C23CC4CC(CC(C4)C2)C3)cc1)c1cccs1 [1‐4j, N‐(4‐((3r,5r,7r)‐Adamantan‐1‐yl)Phenyl)Thiophene‐2‐Carboxamide]	98.7 ± 0.6	–
86 ± 3	O=C(Nc1ccc(C23CC4CC(CC(C4)C2)C3)cc1)c1c[nH]cn1 [1‐4k, N‐(4‐((3r,5r,7r)‐Adamantan‐1‐yl)Phenyl)−1H‐Imidazole‐4‐Carboxamide]	99.7 ± 0.2	concentration in the plasma (rough screen) [1]: barely detectable in the plasma
83 ± 3	Cn1cncc1C(=O)Nc1ccc(C23CC4CC(CC(C4)C2)C3)cc1 [1‐4l, N‐(4‐((3r,5r,7r)‐Adamantan‐1‐yl)Phenyl)−1‐Methyl‐1H‐Imidazole‐5‐Carboxamide]	97.8 ± 0.6	concentration in the plasma (rough screen) [1]: barely detectable in the plasma
79 ± 2	O=C(Nc1ccc(C23CC4CC(CC(C4)C2)C3)cc1)c1cc[nH]n1 [1‐4m, N‐(4‐((3r,5r,7r)‐Adamantan‐1‐yl)Phenyl)−1H‐Pyrazole‐3‐Carboxamide]	99.8 ± 0.1	concentration in the plasma (rough screen) [1]: barely detectable in the plasma
–	Cn1cccc1C(=O)Nc1ccc(C23CC4CC(CC(C4)C2)C3)cc1 [1‐4n, N‐(4‐((3r,5r,7r)‐Adamantan‐1‐yl)Phenyl)−1‐Methyl‐1H‐Pyrrole‐2‐Carboxamide]	57.5 ± 2	–

IC50 ([2]; Homo sapiens, HEK-293T) [nM]	SMILES	inhibition at 10 µM [2, 3] [%]	further results
–	O=C(Nc1ccc(C23CC4CC(CC(C4)C2)C3)cc1)c1ccsc1 [1‐4o, N‐(4‐((3r,5r,7r)‐Adamantan‐1‐yl)Phenyl)Thiophene‐3‐Carboxamide]	48.5 ± 8.7	–
73 ± 2	Nc1ccnc(C(=O)Nc2ccc(C34CC5CC(CC(C5)C3)C4)cc2)c1 [1‐4p, N‐(4‐((3r,5r,7r)‐Adamantan‐1‐yl)Phenyl)−4‐Aminopicolinamide]	99.2 ± 0.1	concentration in the plasma (rough screen) [1]: barely detectable in the plasma
110 ± 20	Nc1cccc(C(=O)Nc2ccc(C34CC5CC(CC(C5)C3)C4)cc2)n1 [1‐4q, N‐(4‐((3r,5r,7r)‐Adamantan‐1‐yl)Phenyl)−6‐Aminopicolinamide]	98.6 ± 0.1	–
170 ± 20	Nc1cccnc1C(=O)Nc1ccc(C23CC4CC(CC(C4)C2)C3)cc1 [1‐4r, N‐(4‐((3r,5r,7r)‐Adamantan‐1‐yl)Phenyl)−3‐Aminopicolinamide]	97.5 ± 1	–
1500 ± 200	O=C(NC1C2CC3CC(C2)CC1C3)c1ccc(NC(=O)c2ccccn2)cc1 [2‐3a, N‐(4‐(((1R,3S,5r,7r)‐Adamantan‐2‐yl)Carbamoyl)Phenyl)Picolinamide]	78.5 ± 4.5	–
3500 ± 1000	O=C(CC12CC3CC(CC(C3)C1)C2)Nc1ccc(NC(=O)c2ccccn2)cc1 [2‐3b, N‐(4‐(2‐((3r,5r,7r)‐Adamantan‐1‐yl)Acetamido)Phenyl)Picolinamide]	68 ± 4.7	–
2100 ± 400	CC(NC(=O)c1ccc(NC(=O)c2ccccn2)cc1)C12CC3CC(CC(C3)C1)C2 (stereo not drawn) [2‐3c, N‐(4‐((1‐((3r,5r,7r)‐Adamantan‐1‐yl)Ethyl)Carbamoyl)Phenyl)Picolinamide]	79.9 ± 2	–
–	Cc1cc(C23CC4CC(CC(C4)C2)C3)cc(C)c1NC(=O)c1cccc(Cl)c1 [3‐2a, N‐(4‐((3r,5r,7r)‐Adamantan‐1‐yl)−2,6‐Dimethylphenyl)−3‐Chlorobenzamide]	34.8 ± 3.8	–
–	CC(C)c1cc(C23CC4CC(CC(C4)C2)C3)cc(C(C)C)c1NC(=O)c1cccc(Cl)c1 [3‐2b, N‐(4‐((3r,5r,7r)‐Adamantan‐1‐yl)−2,6‐Diisopropylphenyl)−3‐Chlorobenzamide]	27 ± 4.9	–
–	O=C(Nc1ncc(C23CC4CC(CC(C4)C2)C3)cn1)c1cccc(Cl)c1 [3‐2c, N‐(5‐((3r,5r,7r)‐Adamantan‐1‐yl)Pyrimidin‐2‐yl)−3‐Chlorobenzamide]	65.3 ± 4.3	–
–	CC(=O)Nc1ccc(C(=O)Nc2ccc(C34CC5CC(C)(CC(C)(C5)C3)C4)cc2)cc1 [3‐2d]	31.4 ± 4.5	–
–	CC12CC3CC(C)(C1)CC(c1ccc(NC(=O)c4cccc(Cl)c4)cc1)(C3)C2 [3‐2e, 3‐Chloro‐N‐(4‐((1r,3R,5S,7r)−3,5‐Dimethyladamantan‐1‐yl)Phenyl)Benzamide]	27.1 ± 1	–
–	Cc1cc(C23CC4CC(C)(CC(C)(C4)C2)C3)cc(C)c1NC(=O)c1cccc(Cl)c1 [3‐2f, 3‐Chloro‐N‐(4‐((1r,3R,5S,7r)−3,5‐Dimethyladamantan‐1‐yl)−2,6‐Dimethylphenyl)Benzamide]	65.7 ± 6.7	–
–	CC12CC3CC(C)(C1)CC(c1cnc(NC(=O)c4cccc(Cl)c4)nc1)(C3)C2 [3‐2g, 3‐Chloro‐N‐(5‐((1r,3R,5S,7r)−3,5‐Dimethyladamantan‐1‐yl)Pyrimidin‐2‐yl)Benzamide]	27.8 ± 8.8	–
–	CCc1cc(C23CC4CC(C)(CC(C)(C4)C2)C3)cc(CC)c1NC(=O)c1cccc(Cl)c1 [3‐2h, 3‐Chloro‐N‐(4‐((1r,3R,5S,7r)−3,5‐Dimethyladamantan‐1‐yl)−2,6‐Diethylphenyl)Benzamide]	30 ± 8.4	–
–	CCc1cc(C23CC4CC(CC(C4)C2)C3)cc(CC)c1NC(=O)c1cccc(Cl)c1 [3‐2i, N‐(4‐((3r,5r,7r)‐Adamantan‐1‐yl)−2,6‐Diethylphenyl)−3‐Chlorobenzamide]	35.1 ± 5.7	–
2600 ± 500	COC(=O)c1ccc(O)c(NC(=O)COc2ccc(C34CC5CC(CC(C5)C3)C4)cc2)c1 [LW6, reference compound]	70.9 ± 3.7	–
